Experimental findings from patent publication US20240109865A1, “INDAZOLE COMPOUNDS AS KINASE INHIBITORS” (TYRA BIOSCIENCES, INC., priority 2020, published 2024) are described below.

Bounds are passed on as bounds.

Test in all cases: Kinase assay, binding constants (Kd), kinase-tagged T7 phage, qPCR
In one experiment the target is FGFR4 (Homo sapiens (Human), UniProt P22455). In short, it runs like this:
(§1)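 Kinase-tagged T7 phage (grown in BL21-derived E. coli) competed with test compound for immobilized biotinylated ligand on streptavidin beads. Kds came from an 11-point 3-fold dilution series at 0.9% final DMSO. Bound kinase was eluted with non-biotinylated ligand and quantified by qPCR, with Hill slope fixed at −1.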

The target of the next experiment is FGFR3 (V555M) (Homo sapiens (Human), UniProt P22607, V555M). The settings on record: V555M mutant. In short, it runs like this: as §1
FGFR3 (V555M), sequence (P22607 23-806 V555M): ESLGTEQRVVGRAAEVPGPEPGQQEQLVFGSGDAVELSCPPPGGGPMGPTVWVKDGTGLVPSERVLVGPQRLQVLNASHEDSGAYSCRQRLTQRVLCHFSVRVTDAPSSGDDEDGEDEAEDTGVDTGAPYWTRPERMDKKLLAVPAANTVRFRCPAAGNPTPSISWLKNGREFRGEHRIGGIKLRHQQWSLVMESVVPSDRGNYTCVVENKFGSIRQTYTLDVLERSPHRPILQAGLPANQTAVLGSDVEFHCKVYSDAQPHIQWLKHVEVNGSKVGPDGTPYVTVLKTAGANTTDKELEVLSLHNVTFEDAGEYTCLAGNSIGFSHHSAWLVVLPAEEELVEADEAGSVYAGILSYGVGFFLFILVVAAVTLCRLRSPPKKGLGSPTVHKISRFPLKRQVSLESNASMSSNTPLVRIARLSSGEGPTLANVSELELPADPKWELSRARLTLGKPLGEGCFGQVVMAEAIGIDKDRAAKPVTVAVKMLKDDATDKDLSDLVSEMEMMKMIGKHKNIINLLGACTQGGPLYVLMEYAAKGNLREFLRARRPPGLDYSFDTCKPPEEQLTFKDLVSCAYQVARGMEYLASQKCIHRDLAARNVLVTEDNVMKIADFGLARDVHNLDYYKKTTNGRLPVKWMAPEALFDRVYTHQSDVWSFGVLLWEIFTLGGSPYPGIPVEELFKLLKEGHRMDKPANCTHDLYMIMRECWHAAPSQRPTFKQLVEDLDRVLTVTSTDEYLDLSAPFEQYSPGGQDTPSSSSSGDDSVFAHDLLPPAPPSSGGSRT
Another experiment concerns the target FGFR3 (Homo sapiens (Human), UniProt P22607). Put shortly:
as §1

In a further experiment the target is FGFR2 (Homo sapiens (Human), UniProt P21802). Put shortly: as §1
FGFR2, sequence (P21802 22-821): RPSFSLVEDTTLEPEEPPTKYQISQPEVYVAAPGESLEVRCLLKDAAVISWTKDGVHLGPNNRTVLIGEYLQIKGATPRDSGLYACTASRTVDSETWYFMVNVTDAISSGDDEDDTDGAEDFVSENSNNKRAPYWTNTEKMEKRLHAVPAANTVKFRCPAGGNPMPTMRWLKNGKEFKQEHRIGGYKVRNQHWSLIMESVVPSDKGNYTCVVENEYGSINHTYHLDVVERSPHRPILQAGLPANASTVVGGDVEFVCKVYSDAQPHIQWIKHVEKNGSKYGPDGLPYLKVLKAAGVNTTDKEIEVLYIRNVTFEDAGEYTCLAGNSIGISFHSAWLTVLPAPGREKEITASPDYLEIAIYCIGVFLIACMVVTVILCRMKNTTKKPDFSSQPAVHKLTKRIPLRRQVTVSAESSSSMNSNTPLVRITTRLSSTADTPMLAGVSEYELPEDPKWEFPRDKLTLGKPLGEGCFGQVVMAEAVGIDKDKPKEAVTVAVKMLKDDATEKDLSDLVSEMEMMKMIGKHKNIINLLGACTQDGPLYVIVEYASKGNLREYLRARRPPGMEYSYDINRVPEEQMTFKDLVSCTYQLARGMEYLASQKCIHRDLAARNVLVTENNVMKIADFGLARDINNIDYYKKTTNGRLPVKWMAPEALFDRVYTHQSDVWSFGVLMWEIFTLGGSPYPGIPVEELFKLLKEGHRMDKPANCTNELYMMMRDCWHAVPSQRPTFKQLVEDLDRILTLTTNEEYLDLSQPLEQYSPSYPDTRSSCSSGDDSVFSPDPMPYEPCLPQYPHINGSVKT
For another experiment, the target named is FGFR1 (Homo sapiens (Human), UniProt P11362). In short, it runs like this:
as §1

FGFR1, sequence (P11362 22-822): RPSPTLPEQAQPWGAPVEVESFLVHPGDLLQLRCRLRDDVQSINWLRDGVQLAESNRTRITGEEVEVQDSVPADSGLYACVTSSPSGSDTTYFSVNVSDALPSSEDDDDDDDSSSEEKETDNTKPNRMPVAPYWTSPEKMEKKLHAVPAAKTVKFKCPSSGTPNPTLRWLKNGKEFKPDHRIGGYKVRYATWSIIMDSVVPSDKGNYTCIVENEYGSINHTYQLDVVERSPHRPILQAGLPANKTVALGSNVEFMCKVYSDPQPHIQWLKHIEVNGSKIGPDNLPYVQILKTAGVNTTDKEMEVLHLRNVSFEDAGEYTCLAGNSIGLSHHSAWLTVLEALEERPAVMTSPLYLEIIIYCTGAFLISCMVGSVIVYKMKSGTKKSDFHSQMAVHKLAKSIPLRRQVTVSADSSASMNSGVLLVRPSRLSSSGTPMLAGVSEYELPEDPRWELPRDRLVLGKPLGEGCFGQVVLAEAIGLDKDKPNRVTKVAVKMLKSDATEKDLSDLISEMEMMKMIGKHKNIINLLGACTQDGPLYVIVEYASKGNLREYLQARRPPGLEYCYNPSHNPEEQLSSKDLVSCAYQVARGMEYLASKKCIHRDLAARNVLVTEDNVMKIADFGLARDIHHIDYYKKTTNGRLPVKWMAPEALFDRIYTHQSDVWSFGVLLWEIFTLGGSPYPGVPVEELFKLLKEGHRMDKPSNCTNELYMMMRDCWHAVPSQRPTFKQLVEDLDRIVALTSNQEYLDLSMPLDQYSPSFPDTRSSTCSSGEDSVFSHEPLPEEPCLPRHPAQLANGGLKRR
FGFR4, sequence (P22455 22-802): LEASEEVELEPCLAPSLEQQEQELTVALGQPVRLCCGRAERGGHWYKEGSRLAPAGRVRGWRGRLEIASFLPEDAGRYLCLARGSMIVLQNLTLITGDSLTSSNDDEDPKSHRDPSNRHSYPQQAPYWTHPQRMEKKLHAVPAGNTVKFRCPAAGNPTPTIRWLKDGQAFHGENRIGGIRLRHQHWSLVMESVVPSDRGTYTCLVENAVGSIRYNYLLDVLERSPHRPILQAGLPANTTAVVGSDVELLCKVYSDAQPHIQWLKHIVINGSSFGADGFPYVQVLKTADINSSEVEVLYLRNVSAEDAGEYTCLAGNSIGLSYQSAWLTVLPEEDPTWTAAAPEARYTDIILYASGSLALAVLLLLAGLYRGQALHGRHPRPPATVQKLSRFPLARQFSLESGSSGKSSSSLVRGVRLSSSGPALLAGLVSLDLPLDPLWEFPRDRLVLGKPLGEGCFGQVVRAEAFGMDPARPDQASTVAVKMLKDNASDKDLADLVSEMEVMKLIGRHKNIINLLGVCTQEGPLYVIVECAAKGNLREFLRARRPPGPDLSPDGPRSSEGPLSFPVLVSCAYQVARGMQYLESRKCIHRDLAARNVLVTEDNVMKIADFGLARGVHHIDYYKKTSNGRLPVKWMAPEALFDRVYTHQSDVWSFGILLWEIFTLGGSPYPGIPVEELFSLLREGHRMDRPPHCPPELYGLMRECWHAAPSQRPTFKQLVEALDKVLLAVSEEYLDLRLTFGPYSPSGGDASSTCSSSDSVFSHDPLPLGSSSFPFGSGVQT
FGFR3, sequence (P22607 23-806): as the sequence (P22607 23-806 V555M) above, with M533V counted along it

As for `C[C@@H](Oc1cc2c(-c3cnc(N4CC5(C4)CN(S(C)(=O)=O)C5)c(F)c3)n[nH]c2cc1F)c1c(Cl)cncc1Cl` [Example 256, 5-[(1R)-1-(3,5-dichloro-4-pyridyl)ethoxy]-6-fluoro-3-[5-fluoro-6-(2-methylsulfonyl-2,6-diazaspiro[3.3]heptan-6-yl)-3-pyridyl]-1H-indazole], the Kd on FGFR4, at FGFR3 (V555M), on FGFR3, at FGFR2 and on FGFR1 was 1 to 20 nM in each case.
As to `C[C@@H](Oc1ccc2[nH]nc(-c3ccc(N4CC(C)(N)C4)nc3)c2c1)c1c(Cl)cncc1Cl` [Example 257, (R)-1-(5-(5-(1-(3,5-dichloropyridin-4-yl)ethoxy)-1H-indazol-3-yl)pyridin-2-yl)-3-methylazetidin-3-amine], the Kd at FGFR4, on FGFR3 (V555M), at FGFR3, at FGFR2 and on FGFR1 was 1 to 20 nM in each case.
Take `C[C@@H](Oc1cc2c(-c3cnc(N4CC5(C4)CN(S(C)(=O)=O)C5)c(F)c3)n[nH]c2cc1F)c1c(Cl)cnnc1Cl` [Example 258, (R)-5-(1-(3,5-dichloropyridazin-4-yl)ethoxy)-6-fluoro-3-(5-fluoro-6-(6-(methylsulfonyl)-2,6-diazaspiro[3.3]heptan-2-yl)pyridin-3-yl)-1H-indazole]: the Kd on FGFR4, on FGFR3 (V555M), on FGFR3, at FGFR2 and on FGFR1 was 1 to 20 nM each time.
For `Cc1cc2[nH]nc(-c3cnc(N4CC5(C4)CN(S(C)(=O)=O)C5)c(F)c3)c2cc1O[C@H](C)c1c(Cl)cnnc1Cl` [Example 259, (R)-5-(1-(3,5-dichloropyridazin-4-yl)ethoxy)-3-(5-fluoro-6-(6-(methylsulfonyl)-2,6-diazaspiro[3.3]heptan-2-yl)pyridin-3-yl)-6-methyl-1H-indazole], the Kd on FGFR4, on FGFR3 (V555M), at FGFR3, at FGFR2 and at FGFR1 was 1 to 20 nM throughout.
Consider `C[C@@H](Oc1cc2c(-c3ccc(N4CC5(C4)CN(S(C)(=O)=O)C5)nc3)n[nH]c2cc1Cl)c1c(Cl)cncc1Cl` [Example 260, (R)-6-chloro-5-(1-(3,5-dichloropyridin-4-yl)ethoxy)-3-(6-(6-(methylsulfonyl)-2,6-diazaspiro[3.3]heptan-2-yl)pyridin-3-yl)-1H-indazole], for which the Kd at FGFR4, at FGFR3 (V555M), on FGFR3, at FGFR2 and on FGFR1 was 1 to 20 nM throughout.
Turning to `COc1cc2[nH]nc(-c3ccc(N4CC5(C4)CN(S(C)(=O)=O)C5)nc3)c2cc1O[C@H](C)c1c(Cl)cnnc1Cl` [Example 261, (R)-5-(1-(3,5-dichloropyridazin-4-yl)ethoxy)-6-methoxy-3-(6-(6-(methylsulfonyl)-2,6-diazaspiro[3.3]heptan-2-yl)pyridin-3-yl)-1H-indazole], the dissociation constant Kd at FGFR4, at FGFR3 (V555M), on FGFR3, on FGFR2 and on FGFR1 was 1 to 20 nM throughout.
For `C[C@@H](Oc1cc2c(-c3ccc(N4CC5(C4)CN(S(C)(=O)=O)C5)nc3)n[nH]c2cc1F)c1c(Cl)cnnc1Cl` [Example 262, (R)-5-(1-(3,5-dichloropyridazin-4-yl)ethoxy)-6-fluoro-3-(6-(6-(methylsulfonyl)-2,6-diazaspiro[3.3]heptan-2-yl)pyridin-3-yl)-1H-indazole], the Kd on FGFR4, at FGFR3 (V555M), at FGFR3, on FGFR2 and on FGFR1 was 1 to 20 nM throughout.
Take `C[C@@H](Oc1cc2c(-c3ccc(N4CC5(C4)CN(S(C)(=O)=O)C5)nc3)n[nH]c2cc1Cl)c1c(Cl)cnnc1Cl` [Example 263, (R)-6-chloro-5-(1-(3,5-dichloropyridazin-4-yl)ethoxy)-3-(6-(6-(methylsulfonyl)-2,6-diazaspiro[3.3]heptan-2-yl)pyridin-3-yl)-1H-indazole]: the Kd on FGFR4, on FGFR3 (V555M), on FGFR3, at FGFR2 and on FGFR1 was 1 to 20 nM each time.
As to `C[C@@H](Oc1cc2c(-c3cnc(N4CC5(C4)CN(S(C)(=O)=O)C5)c(F)c3)n[nH]c2cc1Cl)c1c(Cl)cnnc1Cl` [Example 264, (R)-6-chloro-5-(1-(3,5-dichloropyridazin-4-yl)ethoxy)-3-(5-fluoro-6-(6-(methylsulfonyl)-2,6-diazaspiro[3.3]heptan-2-yl)pyridin-3-yl)-1H-indazole], the Kd on FGFR4, on FGFR3 (V555M), on FGFR3, at FGFR2 and on FGFR1 was 1 to 20 nM throughout.
In the case of `C[C@@H](Oc1ccc2[nH]nc(-c3cnc(N4CC(C)(N)C4)c(F)c3)c2c1)c1c(Cl)cncc1Cl` [Example 265, (R)-1-(5-(5-(1-(3,5-dichloropyridin-4-yl)ethoxy)-1H-indazol-3-yl)-3-fluoropyridin-2-yl)-3-methylazetidin-3-amine], the Kd on FGFR4, at FGFR3 (V555M), at FGFR3, at FGFR2 and on FGFR1 was 1 to 20 nM each time.
In the case of `Cc1ncc(Cl)c([C@@H](C)Oc2cc3c(-c4ccc(N5CC6(C5)CN(S(C)(=O)=O)C6)nc4)n[nH]c3cc2F)c1Cl` [Example 266, 5-[(1R)-1-(3,5-dichloro-2-methyl-4-pyridyl)ethoxy]-6-fluoro-3-[6-(2-methylsulfonyl-2,6-diazaspiro[3.3]heptan-6-yl)-3-pyridyl]-1H-indazole], the Kd at FGFR4, on FGFR3 (V555M), on FGFR3, on FGFR2 and on FGFR1 was 1 to 20 nM in each case.
With `COc1cc2[nH]nc(-c3cnc(N4CC[C@H]4C)c(F)c3)c2cc1O[C@H](C)c1c(Cl)cncc1Cl` [Example 267, 5-((R)-1-(3,5-dichloropyridin-4-yl)ethoxy)-3-(5-fluoro-6-((R)-2-methylazetidin-1-yl)pyridin-3-yl)-6-methoxy-1H-indazole], the Kd lay within 1 to 20 nM on FGFR4; 1 to 20 nM at FGFR3 (V555M); 1 to 20 nM at FGFR3; 20 to 100 nM on FGFR2; 20 to 100 nM at FGFR1.
Turning to `COc1cc2[nH]nc(-c3cnc(N4CCC4)c(F)c3)c2cc1O[C@H](C)c1c(Cl)cncc1Cl` [Example 268, (R)-3-(6-(azetidin-1-yl)-5-fluoropyridin-3-yl)-5-(1-(3,5-dichloropyridin-4-yl)ethoxy)-6-methoxy-1H-indazole], the Kd lay in the range of 1 to 20 nM at FGFR4; 1 to 20 nM on FGFR3 (V555M); 1 to 20 nM at FGFR3; 20 to 100 nM on FGFR2; 20 to 100 nM at FGFR1.
Regarding `Cc1ncc(Cl)c([C@@H](C)Oc2cc3c(-c4cnc(N5CC6(C5)CN(S(C)(=O)=O)C6)c(F)c4)n[nH]c3cc2F)c1Cl` [Example 269, 5-[(1R)-1-(3,5-dichloro-2-methyl-4-pyridyl)ethoxy]-6-fluoro-3-[5-fluoro-6-(2-methylsulfonyl-2,6-diazaspiro[3.3]heptan-6-yl)-3-pyridyl]-1H-indazole], the Kd on FGFR4 lay in the range of 1 to 20 nM; at FGFR3 (V555M), 1 to 20 nM; on FGFR3, 1 to 20 nM; on FGFR2, 20 to 100 nM; at FGFR1, 20 to 100 nM.
For `Cc1ncc(Cl)c([C@@H](C)Oc2cc3c(-c4cnc(N5CC6(C5)CN(S(C)(=O)=O)C6)c(F)c4)n[nH]c3cc2Cl)c1Cl` [Example 270, 6-chloro-5-[(1R)-1-(3,5-dichloro-2-methyl-4-pyridyl)ethoxy]-3-[5-fluoro-6-(2-methylsulfonyl-2,6-diazaspiro[3.3]heptan-6-yl)-3-pyridyl]-1H-indazole], the equilibrium dissociation constant (Kd) on FGFR4 was 1 to 20 nM; at FGFR3 (V555M), 1 to 20 nM; at FGFR3, 1 to 20 nM; on FGFR2, 20 to 100 nM; on FGFR1, 20 to 100 nM.
Take `COc1cc2[nH]nc(-c3cnc(N4CC[C@@H]4C)c(F)c3)c2cc1O[C@H](C)c1c(Cl)cncc1Cl` [Example 271, 5-((R)-1-(3,5-dichloropyridin-4-yl)ethoxy)-3-(5-fluoro-6-((S)-2-methylazetidin-1-yl)pyridin-3-yl)-6-methoxy-1H-indazole]: the Kd at FGFR4 is 1 to 20 nM; at FGFR3 (V555M), 1 to 20 nM; on FGFR3, 1 to 20 nM; at FGFR2, 20 to 100 nM; at FGFR1, 20 to 100 nM.
As to `C[C@@H]1CCN1c1ncc(-c2n[nH]c3cc(Cl)c(O[C@H](C)c4c(Cl)cncc4Cl)cc23)cc1F` [Example 272, 6-chloro-5-((R)-1-(3,5-dichloropyridin-4-yl)ethoxy)-3-(5-fluoro-6-((R)-2-methylazetidin-1-yl)pyridin-3-yl)-1H-indazole], the equilibrium dissociation constant (Kd) at FGFR4 was 20 to 100 nM; on FGFR3 (V555M) it was 20 to 100 nM; at FGFR3, 20 to 100 nM; on FGFR2, greater than 300 nM; at FGFR1, greater than 300 nM.
Consider `Cc1cc2[nH]nc(-c3cnc(N4CC5(C4)CN(S(C)(=O)=O)C5)c(F)c3)c2cc1O[C@H](C)c1c(Cl)cnc(C)c1Cl` [Example 273, 5-[(1R)-1-(3,5-dichloro-2-methyl-4-pyridyl)ethoxy]-3-[5-fluoro-6-(2-methylsulfonyl-2,6-diazaspiro[3.3]heptan-6-yl)-3-pyridyl]-6-methyl-1H-indazole], for which the Kd at FGFR4 was 1 to 20 nM; on FGFR3 (V555M) (given as a number) it was 1.8 nM; at FGFR3, 1 to 20 nM; on FGFR2 it was 20 to 100 nM; on FGFR1, 20 to 100 nM.

By Kd is commonly meant the free concentration of one partner at which half of the binding sites on the other are occupied at equilibrium, for simple one-to-one binding. A lower Kd goes with a tighter complex.
